Results on 25 compounds are retold here after ChEMBL document CHEMBL1140931, “Discovery of the first selective inhibitor of excitatory amino acid transporter subtype 1” (J Med Chem, 2009).

Active and inactive are the calls of the source. The rule behind the calls is not given here.

The target of assay [1] is T1, Excitatory amino acid transporter 3 (Homo sapiens, UniProt P43005).
T1 sequence (P43005 whole entry): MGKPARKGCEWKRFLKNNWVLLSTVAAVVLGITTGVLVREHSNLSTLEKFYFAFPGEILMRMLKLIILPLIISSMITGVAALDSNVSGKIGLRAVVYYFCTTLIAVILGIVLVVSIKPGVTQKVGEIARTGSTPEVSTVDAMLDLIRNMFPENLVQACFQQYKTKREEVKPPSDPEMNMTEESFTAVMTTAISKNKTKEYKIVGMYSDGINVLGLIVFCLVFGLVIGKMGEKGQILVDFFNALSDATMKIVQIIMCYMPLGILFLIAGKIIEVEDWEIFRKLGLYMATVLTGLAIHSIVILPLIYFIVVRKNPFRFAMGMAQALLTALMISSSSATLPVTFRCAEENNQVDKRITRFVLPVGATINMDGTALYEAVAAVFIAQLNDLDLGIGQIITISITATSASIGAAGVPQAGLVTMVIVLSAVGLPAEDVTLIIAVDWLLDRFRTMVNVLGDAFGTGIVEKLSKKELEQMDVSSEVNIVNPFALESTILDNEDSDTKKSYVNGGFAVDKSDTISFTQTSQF
Briefly: Displacement of [3H]D-Asp from human EAAT3 receptor expressed in HEK293 cells. (Displacement assays read how much labelled ligand stays bound in the presence of the test substance.)

In assay [2] the target is Excitatory amino acid transporter 2 (Homo sapiens, UniProt P43004). Briefly: Displacement of [3H]D-Asp from human EAAT2 receptor expressed in HEK293 cells.
Assay [3] has as its target T2, Excitatory amino acid transporter 1 (Rattus norvegicus, UniProt P24942).
T2 sequence (P24942 whole entry): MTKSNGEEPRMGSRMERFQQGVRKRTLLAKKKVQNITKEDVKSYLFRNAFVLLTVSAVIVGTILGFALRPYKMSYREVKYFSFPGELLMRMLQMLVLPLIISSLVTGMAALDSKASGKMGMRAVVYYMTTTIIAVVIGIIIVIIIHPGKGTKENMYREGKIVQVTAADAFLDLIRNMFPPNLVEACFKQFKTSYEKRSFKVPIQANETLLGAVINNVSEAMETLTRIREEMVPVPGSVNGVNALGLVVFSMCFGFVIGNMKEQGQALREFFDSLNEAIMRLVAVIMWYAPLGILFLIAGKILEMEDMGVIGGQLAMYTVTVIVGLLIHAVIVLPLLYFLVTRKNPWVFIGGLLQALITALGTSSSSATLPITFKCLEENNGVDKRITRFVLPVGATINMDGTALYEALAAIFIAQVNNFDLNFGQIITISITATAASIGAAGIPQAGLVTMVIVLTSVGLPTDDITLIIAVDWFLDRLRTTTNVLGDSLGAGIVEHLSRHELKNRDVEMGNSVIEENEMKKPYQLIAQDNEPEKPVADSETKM
Briefly: Activity at rat EAAT1 expressed in TSA201 cells assessed as inhibition of Glu-induced fluorescent response by FLIPR membrane potential blue assay. Type of assay: cell-based.

In assay [4] the target is T3, Excitatory amino acid transporter 3 (Homo sapiens) (UniProt P43005).
T3 sequence (whole entry): T1 sequence (P43005 whole entry)
Briefly: Activity of human EAAT3 expressed in HEK293 cells up to 100 uM. Type of assay: cell-based.

For assay [5], the target named is T4, Excitatory amino acid transporter 1 (Homo sapiens, UniProt P43003). Briefly: Activity of human EAAT1 expressed in HEK293 cells up to 100 uM. Type of assay: cell-based.
Assay [6] addresses T4, Excitatory amino acid transporter 1. Briefly: Activity at human EAAT1 expressed in HEK293 cells assessed as inhibition of Glu-induced fluorescent response by FLIPR membrane potential blue assay.
For assay [7] the target is unchanged. Briefly: Displacement of [3H]D-Asp from human EAAT1 receptor expressed in HEK293 cells.

T4 sequence (P43003 whole entry): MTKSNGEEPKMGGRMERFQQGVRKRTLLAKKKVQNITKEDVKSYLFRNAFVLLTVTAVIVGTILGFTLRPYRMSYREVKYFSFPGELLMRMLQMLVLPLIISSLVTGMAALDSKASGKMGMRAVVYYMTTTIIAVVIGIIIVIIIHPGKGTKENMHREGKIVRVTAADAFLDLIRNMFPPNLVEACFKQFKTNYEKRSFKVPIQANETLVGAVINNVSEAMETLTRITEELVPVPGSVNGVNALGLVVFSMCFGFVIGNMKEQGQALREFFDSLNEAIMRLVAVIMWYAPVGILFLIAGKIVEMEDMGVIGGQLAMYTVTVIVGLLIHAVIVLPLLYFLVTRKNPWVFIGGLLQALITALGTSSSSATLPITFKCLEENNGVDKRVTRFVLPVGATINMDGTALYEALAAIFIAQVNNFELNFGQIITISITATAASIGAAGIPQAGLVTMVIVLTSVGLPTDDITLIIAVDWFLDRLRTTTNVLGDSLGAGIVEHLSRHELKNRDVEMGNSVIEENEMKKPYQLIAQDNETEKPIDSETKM
Chain of Excitatory amino acid transporter 2 (P43004 whole entry): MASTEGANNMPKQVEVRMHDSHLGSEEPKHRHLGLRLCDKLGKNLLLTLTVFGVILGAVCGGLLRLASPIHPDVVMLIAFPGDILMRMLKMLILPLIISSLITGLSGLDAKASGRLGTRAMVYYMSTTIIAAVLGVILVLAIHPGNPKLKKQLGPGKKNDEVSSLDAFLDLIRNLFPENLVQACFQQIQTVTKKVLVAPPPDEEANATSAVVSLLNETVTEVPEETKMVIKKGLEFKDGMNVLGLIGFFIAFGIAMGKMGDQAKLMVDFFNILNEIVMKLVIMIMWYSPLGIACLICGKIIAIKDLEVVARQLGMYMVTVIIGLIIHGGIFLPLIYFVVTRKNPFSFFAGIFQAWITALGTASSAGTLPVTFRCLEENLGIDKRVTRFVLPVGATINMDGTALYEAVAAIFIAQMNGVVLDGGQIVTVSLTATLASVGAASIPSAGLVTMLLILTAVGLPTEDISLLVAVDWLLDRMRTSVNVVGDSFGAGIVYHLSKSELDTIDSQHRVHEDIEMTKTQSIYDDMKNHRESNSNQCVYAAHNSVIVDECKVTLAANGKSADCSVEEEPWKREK

By IC50 is commonly meant the concentration that inhibits the measured activity by half. On to `COc1ccc(C2C(C#N)=C(N)OC3=C2C(=O)CC(c2cccc4ccccc24)C3)cc1` (centres undefined), for which the IC50 is greater than 316 µM in assay [1]; greater than 316 µM in assay [2]; 0.97 µM in assay [3]; 0.12 µM in assay [6]; 0.66 µM in assay [7]. Further, the result in assay [4] and in assay [5] was inactive.
For `N#CC1=C(N)OC2=C(C(=O)CC(c3ccccc3)C2)C1c1ccc(-c2ccccc2)cc1` (centres undefined), the IC50 in assay [1] was greater than 100 µM; in assay [2], greater than 100 µM; in assay [7], 2.1 µM.
In the case of `N#CC1=C(N)OC2=C(C(=O)CC(c3cccs3)C2)C1c1ccc([N+](=O)[O-])cc1` (centres undefined), the IC50 in assay [1] is greater than 316 µM; in assay [2], greater than 316 µM; in assay [7] it was 9.9 µM.
As to `N#CC1=C(N)OC2=C(C(=O)CC(c3ccccc3)C2)C1c1ccc([N+](=O)[O-])cc1` (centres undefined), the IC50 in assay [1] was greater than 100 µM; in assay [2], greater than 100 µM; in assay [7], 3.6 µM.
For the compound `COc1ccc(C2C(C#N)=C(N)OC3=C2C(=O)CC(c2ccccc2Cl)C3)cc1` (centres undefined), the IC50 was greater than 316 µM in assay [1], greater than 316 µM in assay [2] and 3.2 µM in assay [7].
`N#CC1=C(N)OC2=C(C1)C(=O)CC(c1ccccc1)C2` (centres undefined): the IC50 in assay [1] was greater than 316 µM; in assay [2], greater than 316 µM; in assay [7] it was greater than 300 µM.
For `COc1ccc(C2C(C#N)=C(N)OC3=C2C(=O)CC(c2ccco2)C3)cc1OC(=O)N1CCOCC1` (centres undefined), the IC50 in assay [1] is greater than 316 µM; in assay [2], greater than 316 µM; in assay [7], 100 µM.
For the compound `COc1cccc(C2C(C#N)=C(N)OC3=C2C(=O)CC(c2ccccc2)C3)c1OC` (centres undefined), the IC50 in assay [1] is greater than 100 µM; in assay [2] it was greater than 100 µM; in assay [7] it was roughly 50 µM.
Consider `N#CC1=C(N)OC2=C(C(=O)CC(c3ccco3)C2)C1c1ccccc1` (centres undefined), for which the IC50 is greater than 316 µM in assay [1], greater than 316 µM in assay [2] and 7.3 µM in assay [7].
In the case of `N#CC1=C(N)OC2=C(C(=O)CC(c3ccccc3)C2)C1c1cccs1` (centres undefined), the figures for the IC50 in assay [1], in assay [2] and in assay [7] were greater than 100 µM, greater than 100 µM and 14 µM, respectively.
For the compound `N[C@@H](COS(=O)(=O)O)C(=O)O`, the IC50 in assay [1] and in assay [7] was 100 µM each time.
In the case of `CSc1ccc(C2C(C#N)=C(N)OC3=C2C(=O)CC(c2ccccc2)C3)cc1` (centres undefined), the values for the IC50 in assay [1], in assay [2] and in assay [7] were greater than 100 µM, greater than 100 µM and 2.7 µM, respectively.
Take `N#CC1=C(N)OC2=C(C(=O)CC(c3ccccc3)C2)C1c1cccc2ccccc12` (centres undefined): the IC50 in assay [1] is greater than 100 µM; in assay [2] it was greater than 100 µM; in assay [7] it was 7.4 µM.
For `N#CC1=C(N)OC2=C(C(=O)CC(c3ccccc3)C2)C1c1cc(Br)cs1` (centres undefined), the IC50 in assay [1] is greater than 100 µM; in assay [2], greater than 100 µM; in assay [7], 4.7 µM.
With `COc1cc(C2C(C#N)=C(N)OC3=C2C(=O)CC(c2ccccc2)C3)ccc1OCc1c(F)cccc1Cl` (centres undefined), the IC50 in assay [1] was greater than 100 µM; in assay [2] it was greater than 100 µM; in assay [7], 4.3 µM.
`COc1ccc(C2C(C#N)=C(N)OC3=C2C(=O)CC(c2ccccc2)C3)cc1` (centres undefined): the IC50 in assay [1] and in assay [2] was greater than 100 µM throughout.
With `N#CC1=C(N)OC2=C(C(=O)CC(c3ccccc3)C2)C1c1c[nH]c2ccccc12` (centres undefined), the IC50 in assay [1], in assay [1] (hek293), in assay [2], in assay [2] (hek293) and in assay [7] was greater than 100 µM throughout.
For the compound `N#CC1=C(N)OC2=C(C(=O)CC(c3ccccc3)C2)C1Cc1ccccc1` (centres undefined), the IC50 in assay [1] was greater than 100 µM; in assay [2], greater than 100 µM; in assay [7], 30 µM.
Consider `CC1CC(=O)C2=C(C1)OC(N)=C(C#N)C2c1ccc2c(c1)OCO2` (centres undefined), for which the IC50 in assay [1] is greater than 316 µM; in assay [2], greater than 316 µM; in assay [7], greater than 300 µM.
As to `N#CC1=C(N)OC2=C(C(=O)CC(c3ccccc3)C2)C1c1cccnc1` (centres undefined), the IC50 is greater than 316 µM in assay [1], greater than 316 µM in assay [2] and 30 µM in assay [7].
Regarding `N#CC1=C(N)OC2=C(C(=O)CC(c3ccccc3)C2)C1c1ccc2ccccc2c1` (centres undefined), the figures for the IC50 in assay [1], in assay [2] and in assay [7] were greater than 100 µM, greater than 100 µM and 3.6 µM, respectively.
As for `N#CC1=C(N)OC2=C(C(=O)CC(c3ccccc3)C2)C1c1ccc2c(c1)OCO2` (centres undefined), the IC50 in assay [1] was greater than 316 µM; in assay [2], greater than 316 µM; in assay [7], 4 µM.
With `N#CC1=C(N)OC2=C(C(=O)CC(c3ccccc3)C2)C1c1ccccc1F` (centres undefined), the IC50 in assay [1] is greater than 100 µM; in assay [2], greater than 100 µM; in assay [7] it was 4.7 µM.
Take `CC1C(C#N)=C(N)OC2=C1C(=O)CC(c1ccccc1)C2` (centres undefined): the values for the IC50 in assay [1], in assay [2] and in assay [7] were greater than 316 µM, greater than 316 µM and 9.2 µM, respectively.
Regarding `N#CC1=C(N)OC2=C(C(=O)CCC2)C1c1ccccc1F` (centres undefined), the IC50 was greater than 316 µM in assay [1], greater than 316 µM in assay [2] and greater than 300 µM in assay [7].
